These results are taken from patent US9533982B2, “Substituted bicyclic heteroaryl carboxamide analogs as mGluR5 negative allosteric modulators” (Vanderbilt University, priority 2014, dated 2017).

One may read the IC50 as the concentration that inhibits the measured activity by half.

Bounds are passed on as bounds.

T2 sequence (P31424 21-1171 isoform P31424-2 limits assumed): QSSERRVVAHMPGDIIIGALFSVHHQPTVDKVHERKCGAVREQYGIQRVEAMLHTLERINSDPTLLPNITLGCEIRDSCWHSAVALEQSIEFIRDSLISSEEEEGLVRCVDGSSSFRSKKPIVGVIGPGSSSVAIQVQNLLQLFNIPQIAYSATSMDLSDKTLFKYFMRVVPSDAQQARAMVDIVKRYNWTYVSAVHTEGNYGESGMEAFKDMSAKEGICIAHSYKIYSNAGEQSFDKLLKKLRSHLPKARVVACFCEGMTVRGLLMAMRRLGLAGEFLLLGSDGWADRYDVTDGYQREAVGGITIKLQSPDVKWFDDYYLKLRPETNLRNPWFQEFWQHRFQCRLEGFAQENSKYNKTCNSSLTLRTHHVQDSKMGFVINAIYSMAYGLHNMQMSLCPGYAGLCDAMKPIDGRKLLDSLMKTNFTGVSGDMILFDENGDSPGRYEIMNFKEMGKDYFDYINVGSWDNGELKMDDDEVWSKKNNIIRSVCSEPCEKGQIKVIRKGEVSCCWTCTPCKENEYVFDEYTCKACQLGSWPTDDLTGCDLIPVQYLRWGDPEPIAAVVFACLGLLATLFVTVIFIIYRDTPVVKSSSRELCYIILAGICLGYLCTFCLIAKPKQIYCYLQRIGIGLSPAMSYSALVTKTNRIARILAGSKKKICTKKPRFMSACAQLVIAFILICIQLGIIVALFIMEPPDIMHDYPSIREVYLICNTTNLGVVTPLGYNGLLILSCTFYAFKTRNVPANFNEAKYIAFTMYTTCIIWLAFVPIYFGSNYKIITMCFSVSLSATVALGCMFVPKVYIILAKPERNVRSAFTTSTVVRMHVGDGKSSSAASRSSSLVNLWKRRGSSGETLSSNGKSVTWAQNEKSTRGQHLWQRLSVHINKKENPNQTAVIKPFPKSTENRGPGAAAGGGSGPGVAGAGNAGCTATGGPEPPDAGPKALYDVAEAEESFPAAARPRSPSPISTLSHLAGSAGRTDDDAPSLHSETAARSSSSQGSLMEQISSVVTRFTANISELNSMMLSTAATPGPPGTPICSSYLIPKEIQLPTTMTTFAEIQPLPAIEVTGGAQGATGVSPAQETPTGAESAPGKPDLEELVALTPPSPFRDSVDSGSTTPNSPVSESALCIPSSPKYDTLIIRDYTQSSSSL
mGluR4, sequence (Q14833 33-912): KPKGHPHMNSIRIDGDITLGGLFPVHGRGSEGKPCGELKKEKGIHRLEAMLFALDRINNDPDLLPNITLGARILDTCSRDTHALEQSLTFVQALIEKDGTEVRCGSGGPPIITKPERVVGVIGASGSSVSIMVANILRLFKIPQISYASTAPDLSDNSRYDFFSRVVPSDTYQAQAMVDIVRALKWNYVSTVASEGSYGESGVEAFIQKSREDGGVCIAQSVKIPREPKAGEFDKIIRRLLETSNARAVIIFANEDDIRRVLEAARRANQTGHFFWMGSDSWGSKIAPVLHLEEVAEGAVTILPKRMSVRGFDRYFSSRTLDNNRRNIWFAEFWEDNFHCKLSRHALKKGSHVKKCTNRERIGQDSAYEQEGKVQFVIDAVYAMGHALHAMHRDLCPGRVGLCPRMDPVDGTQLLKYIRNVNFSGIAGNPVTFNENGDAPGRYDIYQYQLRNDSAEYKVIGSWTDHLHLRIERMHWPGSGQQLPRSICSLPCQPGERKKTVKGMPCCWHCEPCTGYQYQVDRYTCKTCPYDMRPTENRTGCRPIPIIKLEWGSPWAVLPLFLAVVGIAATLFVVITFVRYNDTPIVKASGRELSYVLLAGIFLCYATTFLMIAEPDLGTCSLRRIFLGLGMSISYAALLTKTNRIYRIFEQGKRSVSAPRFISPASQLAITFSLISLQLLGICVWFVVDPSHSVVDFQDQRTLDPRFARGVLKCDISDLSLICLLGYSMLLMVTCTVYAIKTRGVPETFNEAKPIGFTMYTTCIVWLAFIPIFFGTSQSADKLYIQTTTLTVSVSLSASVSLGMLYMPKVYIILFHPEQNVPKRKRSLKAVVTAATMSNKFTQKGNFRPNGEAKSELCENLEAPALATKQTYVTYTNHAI

The first data set addresses mGluR4 (Homo sapiens, UniProt Q14833).
Experiment: not given
Conditions: cited from earlier work.
Consider `Cc1cccc(C#Cc2ccccc2)n1` [MPEP, 2-methyl-6-(phenylethynyl)pyridine], for which the “modulation of mGluR4” value was “positive allosteric modulator”.

The next data set deals with N-methyl-D-aspartate (NMDA) receptor.
Experiment: not given
The following applies: at higher concentrations; cited from earlier work.
Turning to `Cc1cccc(C#Cc2ccccc2)n1` [MPEP, 2-methyl-6-(phenylethynyl)pyridine], the “inhibition of NMDA receptor activity” value is “directly inhibit”.

For another data set, the target named is T1, cytochrome P450 1A2 (Homo sapiens, UniProt P05177).
T1 sequence (P05177 1-516): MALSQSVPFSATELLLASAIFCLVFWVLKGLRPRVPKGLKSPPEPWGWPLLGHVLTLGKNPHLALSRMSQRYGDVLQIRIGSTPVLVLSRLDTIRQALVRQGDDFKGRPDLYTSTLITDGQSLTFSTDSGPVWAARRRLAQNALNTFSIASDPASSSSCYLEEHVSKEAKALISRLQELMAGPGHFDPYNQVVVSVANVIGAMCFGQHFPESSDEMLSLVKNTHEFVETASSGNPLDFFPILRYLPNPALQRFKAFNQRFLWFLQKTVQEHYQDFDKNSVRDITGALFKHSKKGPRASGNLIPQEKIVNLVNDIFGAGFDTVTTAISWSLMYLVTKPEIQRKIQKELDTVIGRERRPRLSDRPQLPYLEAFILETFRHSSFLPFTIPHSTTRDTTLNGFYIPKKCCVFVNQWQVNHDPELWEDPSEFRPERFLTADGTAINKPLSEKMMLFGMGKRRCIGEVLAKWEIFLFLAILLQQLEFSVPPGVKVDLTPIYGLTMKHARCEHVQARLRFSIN
Experiment: not given
Conditions: cited from earlier work.
Consider `Cc1nc(C#Cc2cccnc2)cs1` [MTEP, 3-[(2-methyl-1,3-thiazol-4-yl)ethynyl]pyridine], for which the “inhibition of cytochrome P450 1A2” value is “potent inhibitor”.

In a further data set the test system is marble burying activity in mice.
Experiment: not given
Conditions: literature reports; cited from earlier work.
As for `Cc1cccc(C#Cc2ccccc2)n1` [MPEP, 2-methyl-6-(phenylethynyl)pyridine], the “effect in the marble burying model” value is on record as “effective”.

For `CN1CC(=O)N=C1NC(=O)Nc1cccc(Cl)c1` [fenobam, 1-(3-chlorophenyl)-3-(1-methyl-4-oxo-4,5-dihydro-1H-imidazol-2-yl)urea], the “effect in the marble burying model” value is given as “effective”.

The next data set addresses T2, rat mGluR5 (Rattus norvegicus, UniProt P31424).
T2 construct: expressed in transfected cells
Put plainly: mGluR5 activity, cell-based Ca2+ fluorescence (FDSS) assay in human embryonic kidney cells transfected with rat mGluR5. Conditions: HEK cells transfected with rat mGluR5; antagonism of EC80 glutamate response; single experiment or average of two where no error is given. Here is the method:
Human embryonic kidney (HEK) cells transfected with rat or human mGluR5 were plated in clear bottom assay plates for assay in a Functional Drug Screening System (FDSS). The cells were loaded with a Ca^2+-sensitive fluorescent dye (e.g., Fluo-4), and the plates were washed and placed in the FDSS instrument. Test compound was applied to cells 3 seconds after baseline readings were taken. Cells were incubated with the test compounds for 140 seconds and then stimulated with an EC20 concentration of an mGluR5 agonist (e.g., glutamate, 3,5-dihydroxyphenylglycine, or quisqualate); 60-80 seconds later an EC80 concentration of agonist was added and readings taken for an additional 40 seconds. Data were collected at 1 Hz. […] Concentration response curves were generated using a four parameter logistical equation.
The above described assay was operated in two modes. In the first mode (utilizing a triple add protocol), a range of concentrations of the present compounds were added to cells, followed by two single fixed concentrations of agonist (EC20 followed by EC80). If a compound acted as a potentiator, an EC50 value for potentiation of the EC20 response and a maximum extent of potentiation by the compound at this concentration of agonist was determined by non-linear curve fitting. If a compound acted as an antagonist, an IC50 value for antagonism of the EC80 response and a maximum extent of antagonism by the compound at this concentration of agonist was determined by non-linear curve fitting. In the second mode (utilizing a double add protocol), several fixed concentrations of the present compounds were added to various wells on a plate, followed by a range of concentrations of agonist for each concentration of present compound; the EC50 values for the agonist at each concentration of compound were determined by nonlinear curve fitting. A decrease in the EC50 value of the agonist with increasing concentrations of the present compounds (a leftward shift of the agonist concentration-response curve) is an indication of the degree of mGluR5 positive allosteric modulation at a given concentration of the present compound. An increase in the EC50 value of the agonist with increasing concentrations of the present compounds (a rightward shift of the agonist concentration response curve) is an indication of the degree of mGluR5 antagonism at a given concentration of the present compound. The second mode also indicates whether the present compounds also affect the maximum response to mGluR5 to agonists.
The mGluR5 activity was determined using the metabotropic glutamate receptor activity assays in human embryonic kidney cells as described herein, wherein the human embryonic kidney cells were transfected with rat mGluR5. The mGluR5 activity data for some compounds are shown as the average of at least three experiments with the standard error in these cases. If no error is indicated for the mGluR5 activity, the values given represent the results from a single experiment or the average of two experiments. The compounds in Table 1 were synthesized with methods identical or analogous to those shown herein. The requisite starting materials were commercially available, described in the literature, or readily synthesized by one skilled in the art of organic synthesis.
In the case of `Cc1csc(NC(=O)c2cc(C(C)c3cncnc3)cc3cccnc23)n1` (stereo not drawn), the IC50 was found to be 258 nM. As to `Cc1cccc(NC(=O)c2cc(C(=O)c3cncnc3)cc3nccnc23)n1`, the IC50 was 3090 nM.

With `O=C(c1cncnc1)c1cc(C(=O)Nc2ccc(F)cn2)c2nccnc2c1`, the IC50 is above 10000 nM. Turning to `Cc1csc(NC(=O)c2cc(C(O)c3cncc(F)c3)cc3cccnc23)n1` (stereo not drawn), the IC50 is above 30000 nM.

For `O=C(c1cncnc1)c1cc(C(=O)Nc2cccc(Cl)n2)c2ncccc2c1`, the IC50 was determined as 696 nM. For the molecule `O=C(c1cncnc1)c1cc(C(=O)Nc2ccc(Cl)cn2)c2ncccc2c1`, the IC50 was 148 nM. The same measure, in the same setting: the figure for `Cc1csc(NC(=O)c2cc(C(O)c3cncnc3)cc3cccnc23)n1` (stereo not drawn) is above 10000 nM; for `O=C(Nc1ccc(F)cn1)c1cc(C(F)c2cncnc2)cc2nccnc12` (stereo not drawn) it is above 10000 nM; for `COC(c1cncnc1)c1cc(C(=O)Nc2nc(C)cs2)c2ncccc2c1` (stereo not drawn) it is 552 nM. Same read-out and setting: the figure for `O=C(c1cncnc1)c1cc(C(=O)Nc2cccc(F)n2)c2ncccc2c1` is 645 nM; for `Cc1csc(NC(=O)c2cc(C(=O)c3cncc(F)c3)cc3cccnc23)n1` it is 444 nM; for `O=C(c1cncnc1)c1cc(C(=O)Nc2ccc(Cl)cn2)c2nccnc2c1` it is 176 nM.

Regarding `O=C(c1cncc(F)c1)c1cc(C(=O)Nc2ccc(Cl)cn2)c2ncccc2c1`, the IC50 is above 30000 nM. Still for that read-out and setting: the same measure for `COC(c1cncnc1)c1cc(C(=O)Nc2ccc(F)cn2)c2ncccc2c1` (stereo not drawn): 890 nM. Same read-out and setting: the figure for `Cc1cccc(NC(=O)c2cc(C(=O)c3cncnc3)cc3cccnc23)n1` is 163 nM. Same read-out and setting: the same measure for `CC(c1cncnc1)c1cc(C(=O)Nc2ccc(F)cn2)c2ncccc2c1` (stereo not drawn): 540 nM; for `O=C(Nc1ccc(F)cn1)c1cc(C(F)(F)c2cncnc2)cc2cccnc12`: 109 nM; for `O=C(Nc1ccc(F)cn1)c1cc(C(F)c2cncnc2)cc2cccnc12` (stereo not drawn): 83 nM. On to `Cc1csc(NC(=O)c2cc(C(=O)c3cncnc3)cc3cccnc23)n1`, for which the IC50 amounted to 73 nM. On the same count and under the same terms, the same measure for `Cc1csc(NC(=O)c2cc(C(=O)c3cncnc3)cc3nccnc23)n1`: 380 nM; for `Cc1cccc(NC(=O)c2cc(C(=O)c3cncc(F)c3)cc3cccnc23)n1`: 1620 nM.

`O=C(c1cncnc1)c1cc(C(=O)Nc2ccc(F)cn2)c2ncccc2c1`: the IC50 turned out to be 106 nM. Same read-out and setting: the same measure for `Cc1csc(NC(=O)c2cc(C(F)c3cncnc3)cc3cccnc23)n1` (stereo not drawn): 127 nM. With `O=C(c1cncc(F)c1)c1cc(C(=O)Nc2cccc(Cl)n2)c2ncccc2c1`, the half-maximal inhibitory concentration (IC50) was above 30000 nM.

Tested on in the next data set: not given
Experiment: not given
Conditions: intravenous administration to rhesus monkeys; cited from earlier work.
On to `Cc1nc(C#Cc2cccnc2)cs1` [MTEP, 3-[(2-methyl-1,3-thiazol-4-yl)ethynyl]pyridine], for which the clearance entry is reported as “efficiently cleared”.
